Data taken from US8658668B2, “PI3 kinase/mTOR dual inhibitor” (Eli Lilly and Company, priority 2011, dated 2014).

How the values were obtained:
HT-1080 = experiment: Cell proliferation assay (CellTiter-Glo), HT-1080; type: cell-based; details: Homo sapiens, HT-1080, 72 h
Procedure: Plate cells in a 96-well plate at 2000 cells/well in 100 μL of cell specific medium (for U87MG use DMEM, 10% FBS, 25 mM 4-(2-hydroxyethyl)-1-piperazineethanesulfonic acid (HEPES), 1.0 mM sodium pyruvate, and 0.1 mM Non Essential Amino Acids (ATCC Cat.#30-2002); for HT1080 use Eagle's MEM, 10% FBS (ATCC Cat.#30-2003); for H1975, A2780, SJSA-1 and 786-O use RPMI 1640, 10% FBS (ATCC Cat.#30-2001); for A204 use McCoy's 5A, 10% FBS (ATCC Cat.#30-2007) except in column 1 use medium only as the blank control. Incubate the plates overnight at 37° C. and 5% CO2. On the next day, prepare compound stocks at 1 mM in DMSO and serially dilute in DMSO in a 96-well round bottom polypropylene plate. Assay compounds at 10 concentrations in duplicate, 4 compounds per plate.
Transfer 4 μL of the DMSO serial dilutions to a 96 well plate and add 196 μL of culture medium to create a 10× stock for dosing. Gently transfer 11 μL of each dosing stock to the corresponding well of the cell plate resulting in a 0.2% DMSO concentration and a 111 μL final volume. […]
Prepared the CellTiter-Glo reagent (Promega, Cat: G7571) and add 100 µL to each well after the incubation is complete, homogenize the cells by mixing on an orbital shaker for 2 min and then incubate at RT for 10 min to allow the luminescent signal to stabilize. Record the luminescent raw data with a Wallac Victor V plate reader. […]

[1] = tested on: GXF 97 human tumor xenograft cells; experiment: Oncotest tumor clonogenic assay, GXF 97; type: cell-based; details: colony formation, Gastric GXF 97, adeno carcinoma, wd, read-out: Absolute IC50
[2] = tested on: CXF 280 human tumor xenograft cells; experiment: Oncotest tumor clonogenic assay, CXF 280; type: cell-based; details: colony formation, Colon CXF 280, adeno carcinoma, pd, read-out: Absolute IC50
[3] = tested on: CXF 243 human tumor xenograft cells; experiment: Oncotest tumor clonogenic assay, CXF 243; type: cell-based; details: colony formation, Colon CXF 243, adeno carcinoma, pd, read-out: Absolute IC50
[4] = tested on: p110α(E545K)/myc leukemic cells; experiment: E545Kp110a leukemia model; type: in vivo, mouse; details: oral gavage, day 5 through day 11, blood on day 12
Excerpt: Leukemia cell line creation: Transduce embryonic liver cells derived from transgenic embryos, B6.Cg-Tg[IghMyc]22Bri/J (Jackson Laboratory, Bar Harbor, Me.), with a retrovirus expressing a clinically-isolated activating mutation of human p110α (E545K as an amino acid change, G1633A on the nucleotide level) under control of the viral 5′ LTR (long terminal repeat) and expressing GFP (green fluorescent protein) under control of the PGK promoter (MSCV6 FLAG-p110α G1633A PGK/GFP) to create target-driven leukemia cells. Transfer the transduced cells into a lethally irradiated host animal. The transduced cells repopulate the hematopoietic stem cells among bone marrow of the recipient and rescue the recipient animal from radiation-induced lethality due to ablation of the recipient's original bone marrow. Observe the rescued primary animals for development of leukemia via weekly monitoring white blood cell counts in a small amount of blood (10 μL) collected retro-orbitally. Collect blood from primary irradiated animals with confirmed leukemia and serially passage to secondary (non-irradiated) host animals in order to establish as a leukemic cell line.
Subject Animals: Use female C57BL/6 mice (Taconic, Cambridge City, Ind.), 8 to 10 week old and 20 to 22 g in weight, as leukemia recipient animals. Acclimate animals on normal low fat diet (4.5%) prior to inoculation and continue on that diet ad libitum for the duration of the study. Identify individual mice from each group by ear punches. Inoculate animals with leukemic cells from donor animals (day 0).
Syngeneic leukemia model: From a donor animal previously inoculated with the leukemic cell line of interest, collect a small amount of blood retro-orbitally (10 μL) and measure the leukemia cell burden by white blood cell count. From animals with sufficient leukemic burden, collect donor blood, dilute with phosphate-buffered saline (PBS) to 500,000 white blood cells per 200 μL and inject 200 μL per animal retro-orbitally on day 0 to initiate leukemia. […]

[5] = tested on: PAXF 546 human tumor xenograft cells; experiment: Oncotest tumor clonogenic assay, PAXF 546; type: cell-based; details: PAXF546, colony formation, Pancreas PAXF 546, inf., mucous squamous cell carcinoma, read-out: Absolute IC50
[6] = tested on: SXF 1301 human tumor xenograft cells; experiment: Oncotest tumor clonogenic assay, SXF 1301; type: cell-based; details: colony formation, Sarcoma SXF 1301, malignant rhabdomyosarcoma, ud, read-out: Absolute IC50
[7] = tested on: SXF 627 human tumor xenograft cells; experiment: Oncotest tumor clonogenic assay, SXF 627; type: cell-based; details: colony formation, Sarcoma SXF 627, pleomorphic rhabdomyosarcoma, pd, read-out: Absolute IC50
[8] = tested on: human glioblastoma cells U87MG; experiment: Xenograft tumor model, U87MG; type: in vivo, mouse; details: oral gavage
Procedure: Expand human glioblastoma cells U87MG and human renal carcinoma cells 786-O, in culture, harvest and inject subcutaneously onto the rear flank of athymic nude mice. Expand human non-small cell lung cancer cells NCI-H1975 in culture, harvest and inject subcutaneously onto the rear flank of CD-1 nu/nu mice. Prepare test compound in an appropriate vehicle and administer by oral gavage when tumors are established (7-21 days after implant). Tumor response is determined by tumor volume measurement performed twice a week during the course of treatment. Body weight is taken as a general measurement of toxicity.

## CO[C@@H](C)Cn1c(=O)n(C)c2cnc3ccc(-c4cncc(C(C)(C)O)c4)cc3c21 [Example 1, 8-[5-(1-Hydroxy-1-methylethyl)pyridin-3-yl]-1-[(2S)-2-methoxypropyl]-3-methyl-1,3-dihydro-2H-imidazo[4,5-c]quinolin-2-one]
HT-1080
  IC50: 72 nM
[1]
  IC50: 101 nM
[2]
  IC50: 7 nM
[3]
  IC50: 237 nM
[4]; 5 mg/kg qd
  % TGI: 50.5%
[4]; 10 mg/kg qd
  % TGI: 76.1%
[4]; 20 mg/kg qd
  % TGI: 90.1%
[5]
  IC50: 105 nM
[6]
  IC50: > 200 nM
[7]
  IC50: 95 nM
[8]; 3 mg/kg BID
  % TGI: 38.6%
[8]; 6 mg/kg BID
  % TGI: 57.7%
[8]; 10 mg/kg BID
  % TGI: 86.1%
[8]; 12 mg/kg QD
  % TGI: 53.4%
